Results as given in US20250025438A1, “Derivative of aspartic acid and use thereof in treatment of metabolic diseases such as hepatic fibrosis and non-alcoholic hepatitis” (SHENZHEN JINGTAI TECHNOLOGY CO., LTD., priority 2021, published 2025).

Tests used:
Type in all cases: cell-based
α-SMA = experiment: In-vitro liver fibrosis model in activated LX2 cells (TGFβ1), qPCR: α-SMA; conditions: LX-2 cells activated with TGFβ1 (5 ng/mL), 25 μM compound, 24 hours, real-time PCR
Protocol: (§1) This experiment was performed strictly in accordance with the instructions of the Total RNA Kit. The steps were as follows (note: this experiment was performed on ice throughout the entire process, and special RNase-free tips were used throughout the entire process): • 1) The 12-well cell culture plate was taken out from the incubator, the cell culture medium was discarded, the cells were washed twice with 1 mL of 1×PBS, and a negative pressure suction device was used to fully remove PBS; • 2) 350 μL of TRK Lysis Buffer mixture/well was prepared as needed (mixture preparation method: 1 mL of TRKLysis Buffer+20 μL of β-mercaptoethanol), vortexed and mixed well. 350 μL was added to each well of the 12-well cell culture plate, and allowed to stand at room temperature for 5 minutes to fully lyse the cells; • 3) 70% ethanol/well was prepared as needed, vortexed and mixed well. 350 μL was added to each well of the 12-well cell culture plate, mixed well by shaking, and transferred to the spin column (spin column+collection tube were assembled); • 4) Centrifugation was performed at 4° C., 12000 g for 60 sec. […]

collagen 3 = experiment: In-vitro liver fibrosis model in activated LX2 cells (TGFβ1), qPCR: collagen 3; conditions: LX-2 cells activated with TGFβ1 (5 ng/mL), 25 μM compound, 24 hours, real-time PCR
Protocol: as §1

collagen 1 = experiment: In-vitro liver fibrosis model in activated LX2 cells (TGFβ1), qPCR: collagen 1; conditions: LX-2 cells activated with TGFβ1 (5 ng/mL), 25 μM compound, 24 hours, real-time PCR
Protocol: as §1

COL1A2 = experiment: In vitro efficacy in semi-activated LX2 cells, qPCR: COL1A2; conditions: Homo sapiens, LX-2, 48 hours, Q-PCR, read-out: COL1A2 mRNA inhibition rate

Row | Structure (SMILES) | α-SMA gene expression inhibition rate (α-SMA) | collagen 3 gene expression inhibition rate (collagen 3) | collagen 1 gene expression inhibition rate (collagen 1) | inhibition at 50 µM (COL1A2)
1 | COC(=O)[C@@H](N)CC(=O)O [Compound 4] | B (B represented that the inhibition rate was 10% to 25%) | A (A represented that the inhibition rate was 25% or above) | A (A represented that the inhibition rate was 25% or above) | 1 to 10%
2 | COC(=O)C[C@H](N)C(=O)O [Compound 6] | A (A represented that the inhibition rate was 25% or above) | A (A represented that the inhibition rate was 25% or above) | B (B represented that the inhibition rate was 10% to 25%) | 1 to 10%
